Patent publication US20080253996A1, “Use of Sdf-1 for the Treatment and/or Prevention of Neurological Diseases” (LABORATORIES SERONO SA, priority 2005, published 2008)

Tests used:
Assay type in all cases: in vivo, rat
STZ-rats [1] = assay: Hot plate 52° C. test in STZ diabetic rats; conditions: D40 post-STZ, SDF-1α 10, 30, 100 μg/kg, IL-6 10 μg/kg s.c.
Experimental: (§1) Eight week-old male Sprague Dawley rats (Janvier, Le Genest Saint Isle, France) were randomly distributed in 6 experimental groups (n=10) as shown below.
Diabetes was induced by intravenous injection of a buffered solution of streptozotocin (Sigma, L'Isle d'Abeau Chesnes, France) at a dose of 55 mg/kg. STZ was prepared in 0.1 mol/l citrate buffer pH 4.5. The control group received an equivalent volume of citrate buffer. The day of STZ injection was considered as D0.
Treatment with SDF-1α with IL-6 or their matched vehicle was performed on daily basis from D11 to D40.
The animal was placed into a glass cylinder on a hot plate adjusted to 52° C. The latency of the first reaction was recorded (licking, brisk movement of the paws, little leaps or a jump to escape the heat) with a cutoff time of 30 s.

STZ-rats [2] = assay: STZ diabetic neuropathy, electromyography (CMAP latency, SNCV); conditions: D25 post-STZ (similar profile at D40), IL-6 10 μg/kg s.c.; for sensory nerve conduction velocity (SNCV) of diabetic rats: SDF-1α 10, 30, 100 μg/kg (best effect 10 and 30 μg/kg); for CMAP latency of diabetic rats vs vehicle-treated diabetic rats: SDF-1α 10, 30, 100 μg/kg
Experimental: as §1
(§2) Diabetes was induced by intravenous injection of a buffered solution of streptozotocin (Sigma, L'Isle d'Abeau Chesnes, France) at a dose of 55 mg/kg. STZ was prepared in 0.1 mol/l citrate buffer pH 4.5. Control group received an equivalent volume of citrate buffer. The day of STZ injection was considered as D0.
(§3) Treatment with SDF-1α, with IL-6 or their matched vehicle was performed on daily basis from D11 to D40.
Planning of Experiments • Day −7: baseline (EMG) • Day 0: induction by the streptozotocin • Day 7: glycemia monitoring • Day 11: Onset of the treatment • Day 20: Von Frey test • Day 25: EMG monitoring • Day 40: EMG monitoring and HP 52° C. test • Day 41: sciatic nerves and skin biopsy samples were taken off for the histomorphometric analysis.
Electrophysiological recordings were performed using electromyograph (Keypoint, Medtronic, Boulogne-Billancourt, France). Rats were anaesthetized by intraperitoneal injection (IP) of 60 mg/kg ketamine chlorhydrate (Imalgene 500®, Rhône Mérieux, Lyon. France) and 4 mg/kg xylazin (Rompum 2%, Bayer Pharma, Kiel, Germany). The normal body temperature was maintained at […] with a heating lamp and controlled by a contact thermometer (Quick, Bioblock Scientific, Illkirch, France) placed on the tail surface.
Compound muscle action potential (CMAP) was recorded in the gastrocnemius muscle after stimulation of the sciatic nerve. A reference electrode and an active needle were placed in the hindpaw. A ground needle was inserted on the lower back of the rat. Sciatic nerve was stimulated with a single 0.2 ms pulse at a supramaximal intensity. The velocity of the motor wave was recorded.
Sensitive nerve conduction velocity (SNCV) was also recorded. The tail skin electrodes were placed as follows: a reference needle inserted at the base of the tail and an anode needle placed 30 mm away from the reference needle towards the extremity of the tail. A ground needle electrode was inserted between the anode and reference needles. The caudal nerve was stimulated with a series of 20 pulses (for 0.2 ms) at an intensity of 12.8 mA. The velocity was expressed in m/s.
(§4) Global analysis of the data was performed using one factor or repeated measure analysis of variance (ANOVA) and one-way ANOVA. When ANOVA indicated significant difference, Fisher Protected Least Significant Difference was used as post-hoc test to compare experimental groups with the group of diabetic rats treated with the vehicle. The level of significance was set at p≦0.05. Results are expressed as mean ±standard error of the mean (s.e.m.).

[3] = Body weight in streptozotocin (STZ) diabetic rats; conditions: daily s.c. D11 to D40 post-STZ; SDF-1α 10, 30, 100 μg/kg, IL-6 10 μg/kg
Experimental: as §1, §2, §3

STZ-rats [4] = assay: STZ diabetic neuropathy, morphometric analysis of sciatic nerve and skin biopsy; conditions: day 40 post STZ; for density of intra-epidermal nerve fibers: vs vehicle
Experimental: Morphometric analysis was performed at the end of the study. The animals were anesthetized by IP injection of 60 mg/kg Imalgéne 500®. A 5 mm-segment of sciatic nerve was excised for histology. The tissue was fixed overnight with 4% glutaraldehyde (Sigma, L'Isle d'Abeau-Chesnes, France) solution in phosphate buffer solution (pH 7.4) and maintained in 30% sucrose at +4° C. until use. The nerve sample was fixed in 2% osmium tetroxide (Sigma) solution in phosphate buffer solution for 2 h, dehydrated in serial alcohol solution, and embedded in Epon. Embedded tissues were then placed at +70° C. during 3 days of polymerization. Transverse sections of 1.5 μm thickness were obtained using a microtome. They were stained with a 1% toluidine blue solution (Sigma) for 2 min, dehydrated and mounted in Eukitt.
Analysis was performed on the entire surface of the nerve section using a semi-automated digital image analysis software (Biocom, France). Once extraneous objects had been eliminated, the software reported the total number of myelinated fibers. The number of degenerated fibers was then counted manually by an operator. Myelinated fibers without axons, redundant myelin and fibers showing sheaths with too large thickness in respect to their axonal diameter were considered as fibers undergoing processes of degeneration. The number of non-degenerated fibers was obtained by subtraction of the number of degenerated fibers.
Morphological analysis was performed only on fibers considered as non-degenerated. For each fiber, the axonal and myelin sizes were reported in surface area (μm^2). These two parameters were used to calculate the equivalent area of g-ratio (axonal diameter/fiber diameter) of each fiber (i.e., [A/(A+M)]^0.5, A=axonal area, M=myelin area), indicative of the relative myelin sheath thickness.
In addition, a 5-10 mm diameter area of skin was punch-biopsied from the hindpaw. Skin samples were immediately fixed overnight in paraformaldehyde at 4° C., incubated (overnight) in 30% sucrose in 0.1 M PBS for cryoprotection, embedded in OCT and frozen at −80° C. until cryocut.
50 μm-thick cryosections were then cut vertical to the skin surface with a cryostat. Free-floating sections were incubated for 7 days in a bath of rabbit anti-protein gene product 9.5 (1:10000; Ultraclone, Isle of Man, UK) at 4° C. The sections were then processed to reveal immunoreactivity according to the ABC peroxidase method. Briefly, they were incubated in for 1 h with biotinylated […] antibody (1:200), then 30 min in the avidin biotinylated complex at room temperature. Peroxidase activity was visualized using DAB system. Sections were then counterstained with eosin or hematoxylin. Sections were dehydrated, clear with bioclear and mounted on eukitt. Photos of microscope fields were performed at 20× power magnification view using Nikon digital camera at focal distance of 12.9 mm. The number of intra-epidermal nerves on 3 microscope fields of […] (544×408 μm) each was counted by the experimenter on computer screen.
as §4

[5] = SDF-1α 10, 30, 100 μg/kg, IL-6 10 μg/kg s.c.
[6] = SDF-1α especially 10 or 30 μg/kg, IL-6 10 μg/kg s.c.

Substance: IL-6: reference (positive) control compound in nerve crush and STZ models [reference compound]
- threshold latency in the hot plate test (STZ-rats [1]): significantly lowered
- sensory nerve conduction velocity (SNCV) of diabetic rats (STZ-rats [2]): significantly improved
- CMAP latency of diabetic rats vs vehicle-treated diabetic rats (STZ-rats [2]): significant reduction
- body weight of diabetic rats [3]: slight but significant increase
- number of degenerated fibers in the sciatic nerve (STZ-rats [4]; [5]): significantly reduced population of degenerated fibers
- density of intra-epidermal nerve fibers (STZ-rats [4]; [5]): markedly prevented
- g-ratio (relative myelin thickness) vs STZ/Vehicle group (STZ-rats [4]; [6]): significant reduction

Substance: SDF-1α: Human recombinant chemokine SDF-1α (SEQ ID NO: 1), produced in house, expressed in E. Coli cells
- threshold latency in the hot plate test (STZ-rats [1]): significantly lowered
- sensory nerve conduction velocity (SNCV) of diabetic rats (STZ-rats [2]): significantly improved
- CMAP latency of diabetic rats vs vehicle-treated diabetic rats (STZ-rats [2]): significant reduction
- body weight of diabetic rats [3]: slight but significant increase
- g-ratio (relative myelin thickness) vs STZ/Vehicle group (STZ-rats [4]; 100 μg/kg s.c.): did not reach the significance level
- number of degenerated fibers in the sciatic nerve (STZ-rats [4]; [5]): reduction of degenerated fibers population
- density of intra-epidermal nerve fibers (STZ-rats [4]; [5]): significantly greater density
- g-ratio (relative myelin thickness) vs STZ/Vehicle group (STZ-rats [4]; [6]): significantly reduced
- number of degenerated fibers in the sciatic nerve (STZ-rats [4]; lowest dose 10 μg/kg s.c. (best effect)): reached the significance level
